Measured values from US20240124389A1, “COMPOUND OR SALT THEREOF, LIPID PARTICLES, AND PHARMACEUTICAL COMPOSITION” (FUJIFILM Corporation, priority 2021, published 2024).

How the values were obtained:
Format in all cases: physicochemical
EPO mRNA = experiment: mRNA encapsulation rate of EPO mRNA-encapsulating lipid particles; conditions: aminolipid 50 / DOPE 10 / cholesterol 38.5 / DMG-PEG2000 1.5 mol %, lipid/nucleic acid 64 wt/wt
Method in brief: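 Lipid particles made by mixing lipids in ethanol (20 mmol/L total) with EPO mRNA in 50 mmol/L citrate pH 4 (lipid:mRNA weight ratio about 16:1–64:1), then dialysed against 10% sucrose. Total mRNA measured after ethanol precipitation; outer-phase mRNA by RiboGreen fluorescence (ex 485/em 535 nm). Encapsulation (%) = (total − outer)/total × 100.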

FLuc mRNA = experiment: mRNA encapsulation rate of FLuc mRNA-encapsulating lipid particles
Procedure: (§1) The compounds described in Table 2, the neutral lipid, cholesterol (product name: Cholesterol HP; NTPPON FINE CHEMICAL CO., LTD.), and 1,2-dimyristoyl-rac-glycero-3-(methylpolyoxyethylene 2000) (hereinafter, called DMG-PEG2000) were dissolved in ethanol at a molar ratio in Table 2 such that the total lipid concentration became 20 mmol/L, thereby obtaining an oil phase.
(§2) As the neutral lipid, 1,2-distearoyl-sn-glycero-3-phosphocholine (product name: COATSOME® MC-8080; NOF corporation) was used in a case of Comparative Example 1, and L-α-dioleoylphosphatidylethanolamine (product name: COATSOME® MC-8181; NOF corporation) was used in a case other than Comparative Example 1.
(§3) FLuc mRNA (product name: CleanCap FLuc mRNA (5 moU); TriLink) was diluted with 50 mmol/L citrate buffer having a pH 4 such that the weight ratio of total lipid concentration to mRNA concentration is about 19:1 to 64:1, obtaining a water phase. Then, the water phase and the oil phase were mixed together using NanoAssemblr (Precision NanoSystems) such that the volume ratio of water phase:oil phase was 3:1, and the mixed solution was 1.5-fold diluted with phosphate buffered saline (PBS), thereby obtaining a dispersion liquid of mRNA lipid particles. The dispersion liquid was dialyzed with a 10% aqueous sucrose solution using a dialysis cassette (Slide-A-Lyzer G2, MWCO: 10 kD, Thermo Fisher Scientific) to remove ethanol, thereby obtaining FLuc mRNA-encapsulating lipid particles.
15 to 30 μL of a 3 mol/L aqueous sodium acetate solution and 4.5 to 9 μL of glycogen were added to 30 to 60 μL of the lipid particles retaining mRNA, and 0.75 to 1.5 mL of ethanol was added thereto, so that only the nucleic acids were precipitated while the lipid was dissolved. Then, the supernatant was removed by centrifugation. The precipitates were air-dried for 15 minutes or longer, then water was added thereto to redissolve the precipitates, and the concentration thereof was measured using Nanodrop NF1000 (Thermo Fisher Scientific), thereby quantifying the total mRNA concentration.
The mRNA concentration was quantified using a Quant-iT RiboGreen RNA Assay Kit (Thermo Fisher Scientific) according to the protocol. First, a 20×TE buffer included in the above-described kit was diluted with water, thereby obtaining a 1×TE buffer. TE represents Tris/EDTA (ethylenediaminetetraacetic acid). In order to quantify only mRNA in the outer water phase, the dispersion liquid of lipid particles retaining mRNA was 10,000-fold diluted with the 1×TE buffer. 100 μL of the 10,000-fold diluted dispersion liquid of lipid particles was put into a 96-well plate, then 100 μL of a RiboGreen reagent (reagent included in the Quanti-iT Ribogreen RNA Assay Kit described above) 2,000-fold diluted with the 1×TE buffer was added to a sample, and fluorescence (excitation wavelength: 485 nm, fluorescence wavelength: 535 nm) was measured using a plate reader Infinite F200 (TECAN), thereby quantifying the mRNA concentration in the outer water phase.
By using the quantification results of the total mRNA concentration and the mRNA concentration in the outer water phase that were obtained through the above steps, the mRNA encapsulation rate of the mRNA lipid particles was calculated according to the following Equation.
mRNA encapsulation rate (%)=(total mRNA concentration-mRNA concentration in outer water phase)/total mRNA concentration×100

[1] = Particle size of FLuc mRNA-encapsulating lipid particles
Procedure: as §1, §2, §3
The particle size of the mRNA-encapsulating lipid particles was measured by 10-fold diluting the dispersion liquid of lipid particle with phosphate buffered saline (PBS) using Zeta-potential & Particle size Analyzer ELS-Z2 (Otsuka Electronics Co., Ltd.).

[2] = aminolipid 45 / DOPE 10 / cholesterol 43.5 / DMG-PEG2000 1.5 mol %, lipid/nucleic acid 32 wt/wt
[3] = aminolipid 40 / DOPE 10 / cholesterol 48.5 / DMG-PEG2000 1.5 mol %, lipid/nucleic acid 64 wt/wt
[4] = aminolipid 50 / DOPE 10 / cholesterol 38.5 / DMG-PEG2000 1.5 mol %, lipid/nucleic acid 64 wt/wt

| SMILES | Nucleic acid encapsulation rate (EPO mRNA) [%] | Nucleic acid encapsulation rate (FLuc mRNA; [2]) [%] | Particle size [1, 2] [nm] | Nucleic acid encapsulation rate (FLuc mRNA; [3]) [%] | Nucleic acid encapsulation rate (FLuc mRNA; [4]) [%] | Particle size [1, 3] [nm] | Particle size [1, 4] [nm] |
| --- | --- | --- | --- | --- | --- | --- | --- |
| CCCCCCC(CCCC)COC(=O)CCCC(CCCCCC)OC(=O)OCCN(CCOC(=O)OC(CCCCCC)CCCC(=O)OCC(CCCC)CCCCCC)CCN(CC)CC (stereo not drawn) [Example 8, Bis(2-butyloctyl) 11-(2-(diethylamino)ethyl)-5,17-dihexyl-7,15-dioxo-6,8,14,16-tetraoxa-11-azahenicosanedioate] | 98.0 |  |  |  |  |  |  |
| CCCCCCC(CCCC(=O)OCC(CCCCC)CCCCC)OC(=O)OCCN(CCCN(CC)CC)CCOC(=O)OC(CCCCCC)CCCC(=O)OCC(CCCCC)CCCCC (stereo not drawn) [Example 13, Bis(2-pentylheptyl) 11-(3-(diethylamino)propyl)-5,17-dihexyl-7,15-dioxo-6,8,14,16-tetraoxa-11-azahenicosanedio ate] | 98.5 | 99.1 | 83.4 |  |  |  |  |
| CCCCCC(CCCCC)COC(=O)CCCC(CCC)OC(=O)OCCN(CCOC(=O)OC(CCC)CCCC(=O)OCC(CCCCC)CCCCC)CCN(CC)CC (stereo not drawn) [Example 21, Bis(2-pentylheptyl) 11-(2-(diethylamino)ethyl)-7,15-dioxo-5,17-dipropyl-6,8,14,16-tetraoxa-11-azahenicosanedioate] | 99.9 | 98.4 | 100.9 |  |  |  |  |

More lines, now with the values ahead:

| Nucleic acid encapsulation rate (EPO mRNA) [%] | Nucleic acid encapsulation rate (FLuc mRNA; [2]) [%] | Particle size [1, 2] [nm] | Nucleic acid encapsulation rate (FLuc mRNA; [3]) [%] | Nucleic acid encapsulation rate (FLuc mRNA; [4]) [%] | Particle size [1, 3] [nm] | Particle size [1, 4] [nm] | SMILES |
| --- | --- | --- | --- | --- | --- | --- | --- |
| 97.1 | 95.0 | 129 | 100.0 | 100.0 | 104.8 | 95.1 | CCCCCCCOC(=O)CCCC(CCCC(=O)OCCCCCCC)OC(=O)OCCN(CCOC(=O)OC(CCCC(=O)OCCCCCCC)CCCC(=O)OCCCCCCC)CCN(CC)CC [Example 29, diheptyl 11-(2-(diethylamino)ethyl)-5,17-bis(4-(heptyloxy)-4-oxobutyl)-7,15-dioxo-6,8,14,16-tetraoxa-11-azahenicosanedioate] |
| 99.0 |  |  |  |  |  |  | CCCCCCCOC(=O)CCCC(CCCC(=O)OCCCCCCC)OC(=O)OCCN(CCOC(=O)OC(CCCC(=O)OCCCCCC)CCCC(=O)OCCCCCC)CCN(CC)CC [Example 37, 1-Heptyl 21-hexyl 11-(2-(diethylamino)ethyl)-5-(4-(heptyloxy)-4-oxobutyl)-17-(4-(hexyloxy)-4-oxobutyl)-7,15-d ioxo-6,8,14,16-tetraoxa-11-azahenicosanedioate] |
